In patent US8466291B2, “1,5-dideoxy-1,5-imino-D-glucitol compounds” (Academia Sinica, priority 2008, dated 2013):

Key:
[1] = target: T1, Human O-GlcNAcase (Homo sapiens, UniProt O60502); experiment: Inhibition of human O-GlcNAcase; assay type: biochemical; conditions: Table 2; for Selectivity (KI O-GlcNAcase/KI HEX): Human O-GlcNAcase over human HEX B; for Ki: Human O-GlcNAcase
T1 construct: made in house
T1 sequence (O60502 1-916): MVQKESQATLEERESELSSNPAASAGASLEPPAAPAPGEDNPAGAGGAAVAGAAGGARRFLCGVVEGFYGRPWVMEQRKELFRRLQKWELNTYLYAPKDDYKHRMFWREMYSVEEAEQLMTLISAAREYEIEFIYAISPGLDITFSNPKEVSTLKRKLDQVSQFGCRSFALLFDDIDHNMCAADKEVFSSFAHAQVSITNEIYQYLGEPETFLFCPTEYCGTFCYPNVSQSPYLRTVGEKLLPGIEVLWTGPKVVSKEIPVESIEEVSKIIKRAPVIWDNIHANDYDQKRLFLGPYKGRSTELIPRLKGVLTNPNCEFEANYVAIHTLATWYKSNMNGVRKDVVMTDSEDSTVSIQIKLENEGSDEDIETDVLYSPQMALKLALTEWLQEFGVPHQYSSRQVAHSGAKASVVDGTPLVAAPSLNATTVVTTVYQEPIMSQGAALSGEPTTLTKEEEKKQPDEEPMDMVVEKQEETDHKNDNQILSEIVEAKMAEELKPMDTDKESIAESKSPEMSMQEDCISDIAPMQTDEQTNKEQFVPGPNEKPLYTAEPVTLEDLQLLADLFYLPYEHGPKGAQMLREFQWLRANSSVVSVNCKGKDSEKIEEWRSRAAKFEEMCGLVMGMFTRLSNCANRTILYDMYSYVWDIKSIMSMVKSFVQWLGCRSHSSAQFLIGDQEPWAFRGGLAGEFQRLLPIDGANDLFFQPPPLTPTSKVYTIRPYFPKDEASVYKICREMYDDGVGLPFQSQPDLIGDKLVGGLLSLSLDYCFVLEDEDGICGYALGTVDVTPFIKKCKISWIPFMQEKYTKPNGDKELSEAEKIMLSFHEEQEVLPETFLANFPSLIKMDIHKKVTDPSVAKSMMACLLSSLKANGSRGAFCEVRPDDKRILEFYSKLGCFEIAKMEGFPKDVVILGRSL
Procedure: Human O-GlcNAcase was also prepared and tested according to the procedures described in Gao et al., J. Biol. Chem. 2001, 276, 9838-9845 and Macauley et al., J. Am. Chem. Soc. 2005, 127, 17202-17203.

[2] = target: Bacteroids fragilis O-GlcNAcase (Bacteroides fragilis, UniProt Q5L8V6); experiment: Michaelis-Menten/Lineweaver-Burk kinetic inhibition of O-GlcNAcase with 4MU-NAG substrate; assay type: biochemical; conditions: for Selectivity (KI O-GlcNAcase/KI HEX): Bacteroids fragilis O-GlcNAcase over human HEX B, Table 1
Procedure: Bacteroids fragilis O-GlcNAcase, which is highly homologous to human O-GlcNAcase, was prepared as follows. Based on the genome sequence of B. fragilis (NCTC 9343) as disclosed in GenBank accession no. CR626927 (Oct. 23, 2008), a DNA fragment encoding the B. fragilis O-GlcNAcse was amplified via polymerase chain reaction (PCR), using the primers of: 5′-[…]-3′ (SEQ ID NO:1) (forward primer) and 5′-[…]-3′ (SEQ ID NO:2) (reverse primer). The PCR product was cloned into pGEM-T Easy vector (Promega) via cloning sites Nde1 and Xho1 and then subcloned into pET21b vector to produce expression plasmid pOGA, which encodes a fusion protein including O-GlcNAcase and a His6 tag at the C-terminus
Plasmid pOGA was transformed into E. coli BL21 (DE3) cells and a positive transformant was cultured in Luria-Bertani (LB) medium with ampicillin (100 μg/mL) overnight. The E. coli culture, transferred to fresh LB medium, was incubated at 37° C. and, when A600 of the culture reached 0.6, isopropyl-β-D-thiogalactopyranoside (final conc: 250 μM) was added to induce expression of O-GlcNAcse. The induced cells were further cultured at 16° C. overnight, harvested, and disrupted to produce a cell lysate. Upon centrifugation, the supernatant thus obtained was loaded onto a nickel-affinity column. After elution, a fraction containing O-GlcNAcse was collected and the enzyme contained therein was further purified by gel filtration using a Superdex 6 column. See Dennis et al., Nat Struct Mol Biol 2006, 13: 365-71. The purified protein was concentrated using a 10 kDa-cutoff concentrator and dialyzed against 20 mM HEPES (pH 7.5).
The reaction conditions for each enzyme are shown below:
O-GlcNAcase: reaction mixture (0.5 nM O-GlcNAcase (200 μL) in 50 mM citric acid, 100 mM NaCl, 0.1% BSA, 0.05-1.5 mM substrate, pH 4.25) was incubated at 30° C. for 25 minutes. The enzyme activity at different time points was determined by measuring the levels of the fluorescent signals (excitation wavelength: 360 nm; emission wavelength: 460 nm) released from 4-methylumbelliferone, a product of the enzyme reaction.
(§1) In these reactions, the substrate concentrations were three to five fold of the concentration used for determining KM (absent compounds) and the ratio between the enzyme and the compound was 0.1-0.5 nM to 0.3 nM-200 uM. The data thus obtained were analyzed by the Lineweaver-Burk plot. The K1 values were determined by the double reciprocal plot (1/V vs. 1/[S]). More specifically, the Km values for each enzyme in the presence of one of the test compounds first determined and these values were further plotted in view of the concentrations of the compound. K1 was determined by calculating the negative value of the resulting x-intercept. The selectivity of each compound was calculated by the formula: K1 O-GlcNAcase/K1 Hex B.

[3] = target: T2, Human HEX B (Homo sapiens, UniProt P07686); experiment: Michaelis-Menten/Lineweaver-Burk kinetic inhibition of Hex B with 4MU-NAG substrate; assay type: biochemical
T2 construct: Hex B protein (isolated from human placenta) was purchased from Sigma Co; purchased Sigma Co; host or cells: human placenta
Procedure: Hex B protein (isolated from human placenta) was purchased from Sigma Co.
Both O-GlcNAcase and Hex B were subjected to Michaelis-Menton kinetic analysis to determine the kinetics of their enzymatic activity in the presence of absence of Compounds 1-5 and Compound ix, using 4-methylumbelliferyl-N-acetyl-β-D-glucosaminide (4MU-NAG; purchased from Sigma Co.) as the substrate (a fluorogenic substrate). The reaction conditions for each enzyme are shown below:
Hex B: reaction mixture (0.1 nM Hex B (200 μL), 50 mM NaH2PO4, 100 mM NaCl, 0.1% BSA, 0.05-1.5 mM substrate, pH 6.5) was incubated at 30° C. for 25 minutes. The reaction was terminated by addition of a 3× quenching buffer (200 mM sodium glycine buffer, pH 10.8). The enzyme activity was determined as described above.
as §1, with “To determine the effects of Compounds 1-5 and Compound ix on the kinetics of both enzymes, the enzyme reactions described above were performed in the presence of each compound at different concentrations. In” for “In”

[4] = test system: BV2 cells; experiment: GM2 ganglioside level in BV2 cells by high performance thin-layer chromatography; assay type: cell-based, mouse; conditions: 200 nM, 10 days, HPTLC
Procedure: Glycosphingolipids (e.g., GM2) were extracted from the treated cells with chloroform/methanol and the ganglioside levels were determined by high performance thin-layer chromatography.

[5] = target: T3, O-GlcNAcase in human 293T cells (Homo sapiens, UniProt O60502); experiment: Level of protein-associated O-GlcNAc in treated 293T cells by Western blot; assay type: cell-based; conditions: 10 μM, 16 hours, Western blot with anti-O-GlcNAc antibody, versus un-treated cells
T3 construct: endogenous in cells; host or cells: 293T cells
T3 sequence (O60502 1-916): T1 sequence (O60502 1-916)
Procedure: Additionally, Compounds 1 and 3 were tested to determine their inhibitory effects on O-GlcNAcase in human 293T cells. The cells were treated with 10 μM Compound 1 or 3 for 16 hours. The level of protein-associated O-GlcNAc moieties in the treated cells was determined by Western blot analysis using an anti-O-GlcNAc antibody. See Macauley et al., J. Biol. Chem. 2005, 280, 25313-25322. Two known O-GlcNAcase inhibitors, PUGNAc (10 μM) and STZ (10 μM), were used as positive controls (Hanover et al., Arch Biochem. Biophys. 1999, 362, 38-45 and Rao et al., EMBO J. 2006, 25, 1569-1578).

Sequence of Bacteroids fragilis O-GlcNAcase (Q5L8V6 entry or part of it): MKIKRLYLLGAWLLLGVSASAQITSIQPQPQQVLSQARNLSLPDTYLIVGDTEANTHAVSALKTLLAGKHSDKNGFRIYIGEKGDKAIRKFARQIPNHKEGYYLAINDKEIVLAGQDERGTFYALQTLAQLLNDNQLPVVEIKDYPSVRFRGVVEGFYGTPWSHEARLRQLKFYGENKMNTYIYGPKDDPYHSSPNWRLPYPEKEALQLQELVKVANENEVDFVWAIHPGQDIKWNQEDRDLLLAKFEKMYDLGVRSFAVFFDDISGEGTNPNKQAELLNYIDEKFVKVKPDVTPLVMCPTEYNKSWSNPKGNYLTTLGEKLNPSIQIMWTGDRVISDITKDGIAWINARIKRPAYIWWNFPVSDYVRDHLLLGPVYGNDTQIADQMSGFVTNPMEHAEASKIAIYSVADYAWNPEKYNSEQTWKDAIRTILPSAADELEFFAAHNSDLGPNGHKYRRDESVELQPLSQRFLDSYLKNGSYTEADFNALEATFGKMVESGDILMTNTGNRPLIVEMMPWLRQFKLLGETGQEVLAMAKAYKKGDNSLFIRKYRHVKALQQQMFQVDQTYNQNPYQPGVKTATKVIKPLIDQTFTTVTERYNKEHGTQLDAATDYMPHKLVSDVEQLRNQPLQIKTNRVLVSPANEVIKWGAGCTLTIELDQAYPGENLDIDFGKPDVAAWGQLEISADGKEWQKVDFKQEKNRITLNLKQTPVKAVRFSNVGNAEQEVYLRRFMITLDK
T2 sequence (P07686 315-556 limits assumed): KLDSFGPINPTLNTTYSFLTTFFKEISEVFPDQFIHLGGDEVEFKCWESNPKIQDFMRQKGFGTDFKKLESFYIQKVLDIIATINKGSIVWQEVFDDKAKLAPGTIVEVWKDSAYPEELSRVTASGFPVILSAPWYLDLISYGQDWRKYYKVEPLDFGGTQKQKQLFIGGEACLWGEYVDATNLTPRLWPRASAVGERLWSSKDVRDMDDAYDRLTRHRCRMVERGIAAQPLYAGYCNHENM
T2 sequence (P07686 122-311 limits assumed): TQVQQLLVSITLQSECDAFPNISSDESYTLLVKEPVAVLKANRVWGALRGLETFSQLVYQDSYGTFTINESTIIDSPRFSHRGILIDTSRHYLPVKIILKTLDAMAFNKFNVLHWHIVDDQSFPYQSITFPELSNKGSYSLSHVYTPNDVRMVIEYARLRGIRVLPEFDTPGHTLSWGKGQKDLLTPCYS
T2 sequence (P07686 50-107 partner limits assumed): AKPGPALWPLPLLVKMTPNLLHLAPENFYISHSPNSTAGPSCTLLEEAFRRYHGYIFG

Row | Structure (SMILES) | Selectivity (KI O-GlcNAcase/KI HEX) [1] | Ki [1] | Ki [2] | Selectivity (KI O-GlcNAcase/KI HEX) [2] | Ki ([3]; Table 1) | Ki ([3]; Table 2) | GM2 level in treated cells [4] | level of O-GlcNAc moieties in treated cells [5]
1 | COc1ccc(CNCCCCCCCN2CC(NC(C)=O)C(O)C(O)C2CO)cc1 (stereo not drawn) [Compound 2] | 85,000 | 102 ± 6.47 µM | 72.1 ± 0.88 µM | 60,000 | 0.0012 ± 0.00023 µM | 0.0012 ± 0.00023 µM |  | 
2 | CC(=O)N[C@H]1/C(=N/OC(=O)Nc2ccccc2)O[C@H](CO)[C@@H](O)[C@@H]1O [PUGNAc, reference compound] |  |  |  |  |  |  | only modestly increased | notably increased
3 | CC(=O)NC1CN(CCCCCCCN=[N+]=[N-])C(CO)C(O)C1O (stereo not drawn) [Compound 4] | 91 | 155 ± 9.87 µM | 95.7 ± 8.37 µM | 56 | 1.7 ± 0.56 µM | 1.7 ± 0.56 µM |  | 
4 | CN(N=O)C(=O)N[C@@H]1[C@@H](O)[C@H](O)[C@@H](CO)O[C@@H]1O [STZ, reference compound] |  |  |  |  |  |  |  | notably increased
5 | CC(=O)NC1CN(CCCCCCCN)C(CO)C(O)C1O [Compound 1, N-[1(7-Amino-heptyl)]-2-acetamido-1,2,5-trideoxy-1,5-imino-D-glucitol] | 51,000 | 108 ± 9.17 µM | 75.3 ± 9.13 µM | 36,000 | 0.0021 ± 0.00038 µM | 0.0021 ± 0.00038 µM |  | not significantly different than that in un-treated cells
6 | COc1ccc(CN(CCCCCCCN2CC(NC(C)=O)C(O)C(O)C2CO)Cc2ccc(OC)cc2)cc1 (stereo not drawn) [Compound 3] | 250,000 | 176 ± 2.15 µM | 129 ± 2.55 µM | 190,000 | 0.00069 ± 7.7e-05 µM | 0.00069 ± 7.7e-05 µM | significantly increased | not significantly different than that in un-treated cells
